This passage reports % of inhibition, % of control and % binding results from ChEMBL document CHEMBL5465560, “Selectivity Literature for EUbOPEN Chemogenomic Library” (2024).

In assay [1] the target is Platelet-derived growth factor receptor beta (Homo sapiens, UniProt P09619). Put plainly: Selectivity interaction (Upstate Kinase Profiler service (Millipore)) EUB0000056c PDGFRB. To be noted: at 1 µM.
Assay [2] relates to Epidermal growth factor receptor (Homo sapiens), P00533 [UNDEFINED MUTATION]. Put plainly: Selectivity interaction (KinomeScan (DiscoverX)) EUB0001079a EGFR. To be noted: at 1 µM.
Epidermal growth factor receptor (Homo sapiens), P00533 [UNDEFINED MUTATION], sequence (P00533 whole entry, looked up, change not shown): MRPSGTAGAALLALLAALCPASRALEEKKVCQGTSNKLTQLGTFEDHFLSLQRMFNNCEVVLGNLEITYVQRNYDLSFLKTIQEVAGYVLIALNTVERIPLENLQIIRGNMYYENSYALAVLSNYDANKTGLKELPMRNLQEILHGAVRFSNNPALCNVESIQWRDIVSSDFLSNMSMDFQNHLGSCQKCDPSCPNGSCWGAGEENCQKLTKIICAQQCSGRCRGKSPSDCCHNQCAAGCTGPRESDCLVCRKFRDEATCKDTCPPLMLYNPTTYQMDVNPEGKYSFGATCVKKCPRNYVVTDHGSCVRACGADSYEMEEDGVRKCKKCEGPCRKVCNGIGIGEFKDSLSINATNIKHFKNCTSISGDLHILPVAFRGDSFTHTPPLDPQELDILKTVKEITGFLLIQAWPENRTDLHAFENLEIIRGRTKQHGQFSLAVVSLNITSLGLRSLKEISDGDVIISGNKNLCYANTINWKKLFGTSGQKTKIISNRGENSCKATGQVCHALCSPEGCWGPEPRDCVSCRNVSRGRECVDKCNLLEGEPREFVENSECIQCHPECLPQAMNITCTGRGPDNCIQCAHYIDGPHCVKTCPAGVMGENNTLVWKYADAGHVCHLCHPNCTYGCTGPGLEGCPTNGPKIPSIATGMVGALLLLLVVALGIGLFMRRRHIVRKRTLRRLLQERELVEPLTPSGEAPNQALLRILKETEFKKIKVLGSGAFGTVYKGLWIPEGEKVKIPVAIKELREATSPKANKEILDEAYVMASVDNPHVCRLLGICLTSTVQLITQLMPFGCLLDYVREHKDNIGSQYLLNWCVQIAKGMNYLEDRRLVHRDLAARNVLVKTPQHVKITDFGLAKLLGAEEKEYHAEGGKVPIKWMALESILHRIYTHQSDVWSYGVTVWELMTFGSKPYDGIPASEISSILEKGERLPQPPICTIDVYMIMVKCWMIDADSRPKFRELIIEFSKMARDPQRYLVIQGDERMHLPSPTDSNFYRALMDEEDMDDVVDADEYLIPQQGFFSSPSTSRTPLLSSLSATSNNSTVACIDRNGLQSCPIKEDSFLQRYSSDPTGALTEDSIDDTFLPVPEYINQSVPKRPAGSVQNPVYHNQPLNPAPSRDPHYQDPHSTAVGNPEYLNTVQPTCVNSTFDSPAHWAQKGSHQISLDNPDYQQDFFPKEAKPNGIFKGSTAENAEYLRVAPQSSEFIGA
Assay [3] addresses TGF-beta receptor type-2 (Homo sapiens) (UniProt P37173). Put plainly: Selectivity interaction (KinomeScan (DiscoverX)) EUB0000655a TGFBR2. The following applies: at 10 µM.
Assay [4] has as its target Wee1-like protein kinase (Homo sapiens) (UniProt P30291). Put plainly: Selectivity interaction (KinomeScan (DiscoverX)) EUB0000655a WEE1. To be noted: at 10 µM.
The target of assay [5] is Calcium/calmodulin-dependent protein kinase type 1 (Homo sapiens) (UniProt Q14012). Put plainly: Selectivity interaction (KinomeScan (DiscoverX)) EUB0000607a CAMK1. To be noted: at 10 µM.
Calcium/calmodulin-dependent protein kinase type 1 (Homo sapiens), sequence (Q14012 whole entry, looked up): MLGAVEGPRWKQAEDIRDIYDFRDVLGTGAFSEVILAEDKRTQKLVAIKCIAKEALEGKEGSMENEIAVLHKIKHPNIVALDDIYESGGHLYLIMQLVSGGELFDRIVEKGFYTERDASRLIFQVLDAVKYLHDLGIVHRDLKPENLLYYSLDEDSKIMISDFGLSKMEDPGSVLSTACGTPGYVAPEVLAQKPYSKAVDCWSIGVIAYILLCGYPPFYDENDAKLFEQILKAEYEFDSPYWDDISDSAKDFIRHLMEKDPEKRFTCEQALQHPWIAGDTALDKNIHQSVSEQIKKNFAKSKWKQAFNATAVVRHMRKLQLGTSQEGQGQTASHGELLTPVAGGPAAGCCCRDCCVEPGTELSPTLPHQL
Assay [6] has as its target T1, Serine/threonine-protein kinase D2 (Homo sapiens) (UniProt Q9BZL6).
T1 sequence (whole entry): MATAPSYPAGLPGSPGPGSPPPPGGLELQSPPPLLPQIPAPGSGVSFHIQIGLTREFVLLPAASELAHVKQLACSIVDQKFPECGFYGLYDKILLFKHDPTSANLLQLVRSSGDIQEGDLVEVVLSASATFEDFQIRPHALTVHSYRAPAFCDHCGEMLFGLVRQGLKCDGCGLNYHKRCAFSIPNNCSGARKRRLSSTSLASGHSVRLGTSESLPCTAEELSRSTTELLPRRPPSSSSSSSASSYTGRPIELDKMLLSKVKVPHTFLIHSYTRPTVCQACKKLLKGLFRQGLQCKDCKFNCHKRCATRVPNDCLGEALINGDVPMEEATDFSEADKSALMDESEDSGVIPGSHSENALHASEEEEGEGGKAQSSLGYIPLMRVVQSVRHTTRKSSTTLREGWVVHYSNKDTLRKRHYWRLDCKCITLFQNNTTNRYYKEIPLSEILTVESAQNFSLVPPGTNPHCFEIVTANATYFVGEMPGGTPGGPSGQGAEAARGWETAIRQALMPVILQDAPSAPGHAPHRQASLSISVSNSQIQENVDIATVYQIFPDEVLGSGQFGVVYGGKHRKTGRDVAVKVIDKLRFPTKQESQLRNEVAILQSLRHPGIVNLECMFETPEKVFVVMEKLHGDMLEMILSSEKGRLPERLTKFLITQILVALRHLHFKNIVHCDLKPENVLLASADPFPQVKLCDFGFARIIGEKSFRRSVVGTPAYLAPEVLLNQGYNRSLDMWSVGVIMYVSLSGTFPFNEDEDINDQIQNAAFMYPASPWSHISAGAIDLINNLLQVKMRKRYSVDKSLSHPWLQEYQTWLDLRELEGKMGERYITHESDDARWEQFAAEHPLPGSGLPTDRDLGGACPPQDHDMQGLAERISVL
Put plainly: Selectivity interaction (ActivX KiNativ screen (kinase selectivity in THP-1 cell lysates)) EUB0000639a PRKD2. In kind it is subcellular. The following applies: lysate, at 5 µM.

Assay [7] deals with T2, Tyrosine-protein kinase JAK3 (Homo sapiens) (UniProt P52333).
T2 sequence (whole entry): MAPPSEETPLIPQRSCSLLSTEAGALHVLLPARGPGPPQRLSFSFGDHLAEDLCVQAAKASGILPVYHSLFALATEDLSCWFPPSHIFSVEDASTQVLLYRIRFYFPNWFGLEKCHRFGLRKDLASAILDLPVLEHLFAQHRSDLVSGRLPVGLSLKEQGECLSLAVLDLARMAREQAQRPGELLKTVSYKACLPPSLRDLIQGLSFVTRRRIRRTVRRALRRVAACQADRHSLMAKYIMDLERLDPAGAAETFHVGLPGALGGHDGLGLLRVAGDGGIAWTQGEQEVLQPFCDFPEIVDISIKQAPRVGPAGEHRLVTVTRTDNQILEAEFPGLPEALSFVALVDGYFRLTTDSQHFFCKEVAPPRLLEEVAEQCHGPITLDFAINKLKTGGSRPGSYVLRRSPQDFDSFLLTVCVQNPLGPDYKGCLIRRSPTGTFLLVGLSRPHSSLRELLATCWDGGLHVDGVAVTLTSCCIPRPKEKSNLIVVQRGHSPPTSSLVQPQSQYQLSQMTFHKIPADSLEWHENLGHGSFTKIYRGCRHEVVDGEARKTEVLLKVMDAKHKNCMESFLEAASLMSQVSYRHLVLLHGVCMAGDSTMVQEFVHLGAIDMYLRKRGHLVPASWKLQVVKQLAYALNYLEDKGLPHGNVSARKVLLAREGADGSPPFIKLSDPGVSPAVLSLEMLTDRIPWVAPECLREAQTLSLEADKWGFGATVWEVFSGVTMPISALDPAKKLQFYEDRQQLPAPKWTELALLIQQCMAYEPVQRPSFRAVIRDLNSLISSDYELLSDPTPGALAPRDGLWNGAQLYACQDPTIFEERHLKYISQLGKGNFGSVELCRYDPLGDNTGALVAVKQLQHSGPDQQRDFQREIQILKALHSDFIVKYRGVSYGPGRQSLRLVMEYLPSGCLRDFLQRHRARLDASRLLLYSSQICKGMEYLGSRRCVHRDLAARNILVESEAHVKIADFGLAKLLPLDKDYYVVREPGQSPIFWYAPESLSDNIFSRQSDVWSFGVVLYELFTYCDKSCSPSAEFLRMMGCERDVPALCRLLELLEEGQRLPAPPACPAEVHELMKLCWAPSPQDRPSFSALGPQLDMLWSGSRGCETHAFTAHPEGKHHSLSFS
Put plainly: Selectivity interaction (KinomeScan (DiscoverX)) EUB0000229b JAK3. To be noted: at 10 µM.

Assay [8] concerns the target T3, Mitogen-activated protein kinase 13 (Homo sapiens) (UniProt O15264).
T3 sequence (whole entry): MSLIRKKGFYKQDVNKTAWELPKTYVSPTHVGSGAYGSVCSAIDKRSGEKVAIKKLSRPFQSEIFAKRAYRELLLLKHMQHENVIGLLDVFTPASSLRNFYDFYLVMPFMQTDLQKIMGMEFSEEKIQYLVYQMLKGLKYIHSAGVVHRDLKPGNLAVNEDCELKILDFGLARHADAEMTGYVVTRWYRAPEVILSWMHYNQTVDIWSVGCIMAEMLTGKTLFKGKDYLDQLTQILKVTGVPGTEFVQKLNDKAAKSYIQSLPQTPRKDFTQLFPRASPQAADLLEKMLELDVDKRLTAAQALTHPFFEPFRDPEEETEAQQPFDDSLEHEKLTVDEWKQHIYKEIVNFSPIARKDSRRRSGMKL
Put plainly: Selectivity interaction (KinomeScan (DiscoverX)) EUB0001619a MAPK13. The following applies: at 1 µM.

Assay [9] has as its target Ribosomal protein S6 kinase alpha-5 (Homo sapiens) (UniProt O75582). Put plainly: Selectivity interaction (KinomeScan (DiscoverX)) EUB0001619a RPS6KA5. To be noted: at 1 µM.

Platelet-derived growth factor receptor beta, sequence (P09619 whole entry): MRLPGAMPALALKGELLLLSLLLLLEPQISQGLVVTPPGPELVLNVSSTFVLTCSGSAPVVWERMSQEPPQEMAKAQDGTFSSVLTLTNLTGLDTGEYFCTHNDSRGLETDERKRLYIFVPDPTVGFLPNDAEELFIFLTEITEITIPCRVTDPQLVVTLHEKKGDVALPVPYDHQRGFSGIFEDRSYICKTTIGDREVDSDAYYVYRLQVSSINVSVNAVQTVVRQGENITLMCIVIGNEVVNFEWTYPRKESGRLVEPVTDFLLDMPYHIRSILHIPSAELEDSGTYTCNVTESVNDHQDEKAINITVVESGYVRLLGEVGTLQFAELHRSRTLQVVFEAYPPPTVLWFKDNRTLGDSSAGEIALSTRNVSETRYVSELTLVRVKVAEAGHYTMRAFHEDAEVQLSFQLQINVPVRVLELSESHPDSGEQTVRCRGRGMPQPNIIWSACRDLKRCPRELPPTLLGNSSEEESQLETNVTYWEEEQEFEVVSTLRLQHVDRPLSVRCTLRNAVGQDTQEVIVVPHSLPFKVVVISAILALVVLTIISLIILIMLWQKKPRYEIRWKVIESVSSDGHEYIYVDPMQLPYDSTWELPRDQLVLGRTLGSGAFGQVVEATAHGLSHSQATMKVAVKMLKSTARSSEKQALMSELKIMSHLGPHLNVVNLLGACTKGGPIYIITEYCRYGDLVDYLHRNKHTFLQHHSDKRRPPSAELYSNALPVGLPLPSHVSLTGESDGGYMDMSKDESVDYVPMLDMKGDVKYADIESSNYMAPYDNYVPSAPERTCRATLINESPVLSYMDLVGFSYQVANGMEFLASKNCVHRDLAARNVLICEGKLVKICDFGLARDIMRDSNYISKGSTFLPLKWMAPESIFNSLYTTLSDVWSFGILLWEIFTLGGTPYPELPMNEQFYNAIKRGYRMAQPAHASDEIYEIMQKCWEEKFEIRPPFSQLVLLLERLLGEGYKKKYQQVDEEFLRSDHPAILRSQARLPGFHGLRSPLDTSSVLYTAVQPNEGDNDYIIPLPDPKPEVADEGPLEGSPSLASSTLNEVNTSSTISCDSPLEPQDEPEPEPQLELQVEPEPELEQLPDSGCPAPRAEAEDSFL
Wee1-like protein kinase (Homo sapiens), sequence (P30291 whole entry, looked up): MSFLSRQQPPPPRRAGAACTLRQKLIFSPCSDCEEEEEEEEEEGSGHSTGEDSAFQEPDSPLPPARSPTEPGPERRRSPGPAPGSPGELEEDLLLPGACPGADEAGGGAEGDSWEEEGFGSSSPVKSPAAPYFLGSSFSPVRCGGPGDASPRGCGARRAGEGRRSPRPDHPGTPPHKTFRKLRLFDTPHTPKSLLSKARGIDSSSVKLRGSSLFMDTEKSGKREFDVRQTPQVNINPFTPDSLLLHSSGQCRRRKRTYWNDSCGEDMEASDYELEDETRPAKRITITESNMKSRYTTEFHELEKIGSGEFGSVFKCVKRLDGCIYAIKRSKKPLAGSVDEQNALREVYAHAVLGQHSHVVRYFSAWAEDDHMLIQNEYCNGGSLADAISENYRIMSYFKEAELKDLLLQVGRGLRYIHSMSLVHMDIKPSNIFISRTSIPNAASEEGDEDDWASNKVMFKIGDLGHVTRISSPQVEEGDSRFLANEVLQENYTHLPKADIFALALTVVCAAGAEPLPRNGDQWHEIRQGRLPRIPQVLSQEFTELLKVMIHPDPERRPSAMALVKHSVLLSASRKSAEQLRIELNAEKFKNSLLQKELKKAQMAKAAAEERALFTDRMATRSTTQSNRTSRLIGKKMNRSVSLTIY
TGF-beta receptor type-2 (Homo sapiens), sequence (P37173 whole entry): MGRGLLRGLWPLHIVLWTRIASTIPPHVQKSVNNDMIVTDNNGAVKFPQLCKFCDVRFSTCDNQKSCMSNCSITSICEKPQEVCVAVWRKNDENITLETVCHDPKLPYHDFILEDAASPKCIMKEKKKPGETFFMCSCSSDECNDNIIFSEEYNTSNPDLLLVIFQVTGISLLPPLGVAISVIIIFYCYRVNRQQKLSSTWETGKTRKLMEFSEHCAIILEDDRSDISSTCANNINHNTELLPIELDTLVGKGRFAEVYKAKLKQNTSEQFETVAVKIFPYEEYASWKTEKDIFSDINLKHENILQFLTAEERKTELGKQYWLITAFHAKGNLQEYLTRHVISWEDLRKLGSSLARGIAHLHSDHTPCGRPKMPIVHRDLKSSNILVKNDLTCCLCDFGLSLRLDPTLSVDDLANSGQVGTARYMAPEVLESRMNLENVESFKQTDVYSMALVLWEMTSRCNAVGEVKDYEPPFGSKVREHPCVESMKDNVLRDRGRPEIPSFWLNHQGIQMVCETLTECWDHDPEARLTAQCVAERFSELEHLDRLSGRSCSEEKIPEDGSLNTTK
Ribosomal protein S6 kinase alpha-5 (Homo sapiens), sequence (O75582 whole entry, looked up): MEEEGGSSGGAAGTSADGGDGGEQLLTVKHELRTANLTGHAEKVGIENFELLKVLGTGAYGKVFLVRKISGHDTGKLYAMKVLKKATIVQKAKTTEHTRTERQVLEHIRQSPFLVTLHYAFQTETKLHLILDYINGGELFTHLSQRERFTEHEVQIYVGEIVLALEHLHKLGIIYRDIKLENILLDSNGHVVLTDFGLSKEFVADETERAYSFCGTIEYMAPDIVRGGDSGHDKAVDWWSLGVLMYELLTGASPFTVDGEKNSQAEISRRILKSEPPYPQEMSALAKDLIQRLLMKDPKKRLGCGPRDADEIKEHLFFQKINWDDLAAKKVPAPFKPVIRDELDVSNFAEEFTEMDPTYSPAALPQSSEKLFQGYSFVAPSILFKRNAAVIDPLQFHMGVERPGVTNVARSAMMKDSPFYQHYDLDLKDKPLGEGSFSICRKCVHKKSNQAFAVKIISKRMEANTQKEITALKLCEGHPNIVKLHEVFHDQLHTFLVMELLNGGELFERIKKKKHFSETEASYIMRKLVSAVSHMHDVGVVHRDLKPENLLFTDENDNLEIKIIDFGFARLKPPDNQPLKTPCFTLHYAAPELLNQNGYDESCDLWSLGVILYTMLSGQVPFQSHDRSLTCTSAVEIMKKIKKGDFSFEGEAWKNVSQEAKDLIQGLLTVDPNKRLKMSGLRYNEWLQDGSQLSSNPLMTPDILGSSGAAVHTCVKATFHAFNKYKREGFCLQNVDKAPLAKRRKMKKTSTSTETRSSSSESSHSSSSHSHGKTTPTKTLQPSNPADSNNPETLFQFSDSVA

Regarding `Cc1ccc(-c2ccc3c(ccc4sc5c(c43)NC[C@@H](C)NC5=O)n2)cn1`, in assay [1], the % of inhibition is -4%.

In [2], `Nc1cnc(N2CCc3cc(S(=O)(=O)Nc4c(F)cc(Cl)cc4F)cc(N4CCCC4=O)c32)nc1` [TP-020n] registered a % of control of 100%. Consider `CN(C)CCOc1ccc(-c2nc(-c3ccncc3)c(-c3ccc4c(c3)CC/C4=N\O)[nH]2)cc1`, for which the % of control in assay [3] is 44%; in [4], 100%. Take `CNC(=O)Nc1ccc(-c2nc(N3CC4CCC(C3)O4)c3cnn(C4CCC5(CC4)OCCO5)c3n2)cc1`: the % of control in assay [5] amounted to 93%. On to `CC[C@@H]1[C@H](F)C(=O)N[C@@H]1COc1nccc2cc(C(N)=O)c(OC)cc12` [ZIMLOVISERTIB], for which the % of inhibition in assay [6] is 8.9%.

For `COc1cc(N(C)c2ccnc3ccc(C(F)(F)F)cc23)cc(OC)c1OC`, the % binding in assay [7] came out at 99%. `N#Cc1cccc(-c2c[nH]c3ncnc(N4CCOCC4)c23)c1`: the % of control in assay [8] turned out to be 70%; in assay [9], 74%.
